Consider one compound from patent publication US8969413B2.

One assay concerns cortical neurons. The assay is described as follows: [3H]GABA uptake in cultured cortical neurons. Type of assay: cell-based. The conditions noted are these: Mus musculus, Cortical neurone; read-out: neuron uptake IC50. How it is done:
Cortical neurons were cultured essentially as previously described by removing the neopallium of 15-day old NMRI embryos by dissection followed by mild trypsination. Hertz E, Yu A C H, Hertz L, Juurlink B H J and Schousboe A. Preparation of Primary Cultures of Mouse Cortical Neurons, in A Dissection and Tissue Culture Manual of the Nervous System (Shahar A, de Vellis J, Vernadakis A and Haber B eds) pp 183-186, Alan R. Liss, Inc., New York, 198. The neurons were cultured in 10% fetal calf serum and, after 48 h, cytosine arabinoside was added to a final concentration of 20 μM to prevent glial proliferation. Four cultures of stably transfected Human Embryonic Kidney (HEK)-293 cells expressing mGAT1-4 were prepared by the method previously reported. […] J Pharmacol Exp Ther. 2002, 302, 636-644 The stable cell lines are under the selection pressure of blasticidin-S at 5 μg/mL. Determinations of the IC50 values were conducted as described earlier. […] Radioactivity was measured using Microscint™ 20 scintillation fluid (PerkinElmer) and a Packard TopCount microplate scintillation counter.

The next assay deals with Rat. Nature of the assay: subcutaneous Metrazol seizure threshold test (scMET). Type of assay: in vivo. To be noted: 7 days IP, 20 mg/kg dose only, Metrazol 70 mg/kg. How it is done:
Subcutaneous injection of the convulsant Metrazol produces clonic seizures in laboratory animals. […] Animals are pretreated with various doses of the test compound given by i.p. injection. At the previously determined TPE of the test compound, the dose of Metrazol which will induce convulsions in 97% of animals (CD97; 85 mg/kg mice) is injected into a loose fold of skin in the midline of the neck. The animals are placed in isolation cages to minimize stress (Swinyard et al, 1961) and observed for the next 30 minutes for the presence or absence of a seizure. An episode of clonic spasms, approximately 3-5 seconds, of the fore and/or hindlimbs, jaws, or vibrissae is taken as the endpoint.

The test system of a further assay is Mice. The assay is described as follows: maximal electrical shock (MES) model. The assay is classed as in vivo. The conditions noted are these: Single IP dose, 50 mA, 2 seconds, corneal electrode. From the text:
The MES is a model for generalized tonic-clonic seizures and provides an indication of a compound's ability to prevent seizure spread when all neuronal circuits in the brain are maximally active. These seizures are highly reproducible and are electrophysiologically consistent with human seizures. For all tests based on MES convulsions, 60 Hz of alternating current (50 mA in mice) is delivered for 2 s by corneal electrodes which have been primed with an electrolyte solution containing an anesthetic agent (0.5% tetracaine HCL). Mice are tested at various intervals following doses of 30, 100 and 300 mg/kg of test compound given by i.p. injection of a volume of 0.01 mL/g. Other doses can be used if indicated by previously known pharmacology. An animal is considered “protected” from MES-induced seizures upon abolition of the hindlimb tonic extensor component of the seizure (Swinyard et al., 1989; White et al., 1995a; White et al., 1995b).

A further assay deals with Sprague Dawley rats. The assay is described as follows: cocaine induced dopamine surge in nucleus accumbens (FIG. 3). To be noted: 1 mg/kg single dose.

Broadly, the IC50 is the concentration that inhibits the measured activity by half. The ED50 is the midpoint of the dose-response relation. Lower therefore signals greater potency.

With `N[C@H]1C[C@@H](C(=O)O)CC1=C(F)F` [CPP-115], the IC50 in the assay on cortical neurons was more than 1000 µM; at GABAA receptor (read-out: [3H]muscimol competition (GABAA receptor) IC50, 5 nM [3H]muscimol, 0 °C, 60 min) it was more than 100 µM. Further, the scMET protection entry in the assay on Rat was “No protection”. It took a dose of 58.9 mg/kg to reach the 50% effect level in the assay on Mice (Mus musculus) (ED50). Further, the “MES TPE” value with Mice is “TPE 6 hours”. For the same compound, the “inhibition of radioligand binding at GABAA receptors” value in the assay on GABAA receptor (100 μM, rat brain cortical homogenate) is given as “no inhibition of binding was observed”. For the same compound, in the assay on Sprague Dawley rats, the “dopamine levels after cocaine challenge” value is listed as “less than 300 times baseline”.
